Experimental findings from US10106828B2, “Cell culture medium and process for protein expression, said medium and process comprising a PAM inhibitor” (SANDOZ GMBH, priority 2010, dated 2018) are described below.

The test system of assay [1] is CHO cells. In words: Influence of PAM inhibitors on proline amide formation on a monoclonal antibody (chimeric IgG) expressed in CHO cells, CEX-CPB analysis / peptide mapping. In kind it is cell-based, Chinese hamster. Conditions: FIG. 1; for amount of pseudo 1K (proline amide) in CEX-CPB: monoclonal antibody (chimeric IgG), control without inhibitor app. 10%. The text has this: The amount of proline amide can be identified and quantified by various analytical methods, by distinguishing the amidated variant from the non-amidated one by physico-chemical differences such as charge, hydrophobicity or mass. The most common method is ion exchange chromatography, as the CEX-CPB method (cation exchange chromatography after digestion by carboxypeptidase B), exploiting the charge alteration due to proline amidation.
(§1) For antibodies, co-elution of proline amide variants with lysine variants is avoided by removal of lysine residues using carboxypeptidase B digestion prior to chromatographic separation. Additional co-elution with other basic variants, however, can result in a quantification background of several percent (e.g. 4%). Proline amide variants plus background are termed “Pseudo 1K” for eluting at the chromatographic position of the antibody variant with one C-terminal lysine residue. “Pseudo 2K” encompasses the proline variants plus background eluting at the chromatographic position of the antibody variant with two C-terminal lysine residue. The difference to the CEX method (i.e. CEX without lysine removal by CPB digestion) is indicating the amount of antibody variants with lysine residues, termed “Real 1K” and “Real 2K”. The quantification by CEX(-CPB) returns the percentage of proline amidated antibodies relative to all antibody molecules in a solution. An analytical test method which unambiguously can identify and quantify amidated proline variants is RP-HPLC (reversed-phase high-performance-liquid-chromatography) of endopeptidase (e.g. LysC, Trypsin) digested protein, so called peptide mapping, using UV (ultraviolet) or MS (mass-spec) detection. The quantification by RP-HPLC peptide mapping returns for an antibody the percentage of proline amidated heavy chains relative to all heavy chains.
“Pseudo 1K” is the variant determined by CEX-CPB where one of the two heavy chains of an antibody (IgG) has a proline amide at its C-terminus. “Pseudo 2K” is the variant determined by CEX-CPB where both heavy chains of a monoclonal antibody have a proline amide at their C-termini.
In their experiments, the inventors focused on published PAM inhibitors as potential medium components. Among the screened components are, i.e., sodium sulfite, tiopronin, captopril, EDTA, ammonium sulfite, L-histidine, D-histidine, ammonium meta thiomolybdate, L-carnosine, penicillamine, 4-phenyl-3 butenoic acid (PBA). […]
FIG. 1: Influence of PAM inhibitors on proline amide (PA) formation, quantified as ‘pseudo 1K’ in CEX-CPB analysis, on a monoclonal antibody (chimeric IgG) expressed in CHO cells. […]

For assay [2], the system named is CHO cells. Kind of assay: Influence of PBA on proline amide formation on an Fc-fusion protein expressed in CHO cells, quantified by peptide mapping. In kind it is cell-based, Chinese hamster. Conditions: for proline amide (% per heavy chain): without PBA >4%.
Source text: as §1
Two recombinant proteins were used to investigate the effect of PAM inhibitors on amino acid amidation/proline amid formation, i.e., a monoclonal antibody (human-mouse-chimeric IgG), and an Fc-fusion protein. CHO cells were used as expression system.
FIG. 2: Influence of PAM inhibitor PBA on proline amide formation on an Fc-fusion protein expressed in CHO cells, as quantified by peptide mapping. Supplementing the cultures of recombinant CHO cells with various concentrations of PBA up to 100 μM decreased the amount of proline amide (% per heavy chain) in a dose-dependent effect curve from app. 2% (no PBA) to app. 0.1% (100 μM PBA).
FIG. 3: Influence of PAM inhibitor PBA on proline amide formation on an Fc-fusion protein expressed in CHO cells, as quantified by peptide mapping.

Consider `O=C(O)CC=Cc1ccccc1` [PBA, 4-phenyl-3-butenoic acid], for which the results for the “amount of pseudo 1K (proline amide) in CEX-CPB” value in the assay with CHO cells [1] (10 μM in cell culture medium) and in the assay with CHO cells [1] (100 μM in cell culture medium) were roughly 8% and roughly 5%, respectively. Besides, the “proline amide per heavy chain, peptide mapping” value in the assay on CHO cells [1] (corresponds to 5% pseudo 1K in CEX-CPB (100 μM), monoclonal antibody) is listed as 0-2%. Besides, the “effect on proline amide formation compared with other screened PAM inhibitors” value in the assay with CHO cells [1] (supplemented to the cell culture) was “strongest effect”. Moreover, in the assay on CHO cells [2] (FIG. 2, 100 μM PBA, no PBA app. 2%), the “amount of proline amide (% per heavy chain)” value is given as roughly 0.1%. For the same compound, the “effect curve of proline amide decrease” value in the assay with CHO cells [2] (FIG. 2, various concentrations up to 100 μM) is listed as “dose-dependent”. The “proline amide (% per heavy chain)” value with CHO cells [2] (FIG. 3, 50 μM PBA) is on record as less than 1%; with CHO cells [2] (FIG. 3, 100 μM PBA) it was less than 0.5%.
